Test results as given in the NIST ThermoML archive (doi:10.1021/je9005823).

Experiments:
[1] = 298.15 K, 101 kPa, Liquid; for viscosity: Capillary tube (Ostwald / Ubbelohde) method
[2] = refractive index (Na D-line) (dimensionless); details: 298.15 K; 101.33 kPa; Liquid
[3] = refractive index (Na D-line) (dimensionless); xn = mol fraction of the nth substance listed; details: 298.15 K, 101 kPa, Liquid
[4] = xn = mol fraction of the nth substance listed; details: 298.15 K, 101 kPa, Liquid; for viscosity: Capillary tube (Ostwald / Ubbelohde) method

CCCCCC(C)O (configuration not stated) [2-heptanol]
Details	mass density [kg/m3]	refractive index	viscosity [mPa·s]
[1]	813.33	–	5.33
[2]	–	1.4188	–

CCCCCC(C)O (configuration not stated) [2-heptanol] + CC(=O)c1ccccc1
Details	mass density, [4] [kg/m3]	refractive index, [3]	viscosity, [4] [mPa·s]
x2 = 0	813.33	1.4188	5.33
x2 = 0.0913	829.12	1.4489	4.282
x2 = 0.1631	841.87	1.4748	3.572
x2 = 0.2637	860.39	1.5079	2.763
x2 = 0.3425	875.43	1.5298	2.296
x2 = 0.4374	894.2	1.5535	1.908
x2 = 0.5387	915.07	–	1.662
x2 = 0.6446	937.92	–	1.55
x2 = 0.7571	963.35	–	1.548
x2 = 0.8733	991.14	–	1.606
x2 = 0.9542	1011.38	1.5486	1.651

CCCCC(C)O (configuration not stated) [2-hexanol]
Details	mass density [kg/m3]	refractive index	viscosity [mPa·s]
[1]	810.14	–	4.1
[2]	–	1.4116	–

CCCCC(C)O (configuration not stated) [2-hexanol] + CC(=O)c1ccccc1
Details	mass density, [4] [kg/m3]	refractive index, [3]	viscosity, [4] [mPa·s]
x2 = 0	810.14	1.4116	4.1
x2 = 0.0902	827.84	1.4485	3.193
x2 = 0.1678	843.27	1.4782	2.658
x2 = 0.2536	860.63	1.5037	2.16
x2 = 0.34	878.39	1.5247	1.802
x2 = 0.4382	898.86	1.5425	1.506
x2 = 0.5395	920.38	–	1.344
x2 = 0.6451	943.23	–	1.273
x2 = 0.75	966.34	–	1.313
x2 = 0.8628	991.72	1.5505	1.399
x2 = 0.9511	1011.93	1.5394	1.556

CC(=O)c1ccccc1 [acetophenone]
Details	mass density [kg/m3]	refractive index	viscosity [mPa·s]
[1]	1023.3	–	1.678
[2]	–	1.5308	–

CC(=O)c1ccccc1 [acetophenone] + CC(C)O
Details	mass density, [4] [kg/m3]	refractive index, [3]	viscosity, [4] [mPa·s]
x1 = 0.0892	813.69	1.3971	1.678
x1 = 0.1658	839.2	1.4181	1.503
x1 = 0.2517	865.44	1.4393	1.399
x1 = 0.3432	890.91	1.4601	1.354
x1 = 0.4297	913.04	1.4775	1.352
x1 = 0.5345	937.56	1.4953	1.367
x1 = 0.6466	961.31	1.5099	1.421
x1 = 0.7561	982.35	1.5195	1.484
x1 = 0.8635	1001.26	1.5255	1.556
x1 = 0.9568	1016.5	1.5276	1.626
x1 = 1	1023.3	1.5308	1.678

CC(=O)c1ccccc1 [acetophenone] + CCC(C)O
Details	mass density, [4] [kg/m3]	refractive index, [3]	viscosity, [4] [mPa·s]
x1 = 0.1031	830.43	1.4255	2.345
x1 = 0.1635	846.12	1.4443	2.009
x1 = 0.2517	868.13	1.4669	1.705
x1 = 0.3422	889.8	1.4877	1.544
x1 = 0.4361	911.31	1.5044	1.461
x1 = 0.533	932.56	1.5189	1.46
x1 = 0.6461	956.27	1.5314	1.506
x1 = 0.7517	977.34	1.5367	1.562
x1 = 0.8675	999.34	1.5351	1.617
x1 = 0.9462	1013.72	1.5336	1.65
x1 = 1	1023.3	1.5308	1.678

CC(=O)c1ccccc1 [acetophenone] + CCCC(C)O
Details	mass density, [4] [kg/m3]	refractive index, [3]	viscosity, [4] [mPa·s]
x1 = 0.0917	826.19	1.4627	2.767
x1 = 0.1629	842.36	1.4972	2.314
x1 = 0.2502	862.04	1.5257	1.875
x1 = 0.3416	882.41	1.5487	1.626
x1 = 0.4371	903.49	–	1.502
x1 = 0.5387	925.71	–	1.489
x1 = 0.6442	948.51	–	1.534
x1 = 0.7547	972.08	–	1.605
x1 = 0.8716	996.7	1.547	1.658
x1 = 0.949	1012.77	1.539	1.669
x1 = 1	1023.3	1.5308	1.678

CC(=O)c1ccccc1 [acetophenone] + CCCCC(C)O
x1 = 1
Details	mass density [kg/m3]	refractive index	viscosity [mPa·s]
[3]	–	1.5308	–
[4]	1023.3	–	1.678

CC(=O)c1ccccc1 [acetophenone] + CCCCCC(C)O
x1 = 1
Details	mass density [kg/m3]	refractive index	viscosity [mPa·s]
[3]	–	1.5308	–
[4]	1023.3	–	1.678

CCC(C)O (configuration not stated) [butan-2-ol]
Details	mass density [kg/m3]	refractive index	viscosity [mPa·s]
[1]	802.56	–	3.132
[2]	–	1.3946	–

CCC(C)O (configuration not stated) [butan-2-ol] + CC(=O)c1ccccc1
x2 = 0
Details	mass density [kg/m3]	refractive index	viscosity [mPa·s]
[3]	–	1.3946	–
[4]	802.56	–	3.132

CCCC(C)O (configuration not stated) [pentan-2-ol]
Details	mass density [kg/m3]	refractive index	viscosity [mPa·s]
[1]	805.24	–	3.478
[2]	–	1.4045	–

CCCC(C)O (configuration not stated) [pentan-2-ol] + CC(=O)c1ccccc1
x2 = 0
Details	mass density [kg/m3]	refractive index	viscosity [mPa·s]
[3]	–	1.4045	–
[4]	805.24	–	3.478

CC(C)O [propan-2-ol]
Details	mass density [kg/m3]	refractive index	viscosity [mPa·s]
[1]	780.98	–	2.044
[2]	–	1.3745	–

CC(C)O [propan-2-ol] + CC(=O)c1ccccc1
x2 = 0
Details	mass density [kg/m3]	refractive index	viscosity [mPa·s]
[3]	–	1.3745	–
[4]	780.98	–	2.044
